# Where two headings read alike, the source gives them in different places.
# System: DLD-1 BRCA2−/− cells
# Experiment: Homologous recombination synthetic lethal inhibition of proliferation, DLD-1 BRCA2-/- (Cell Titre Glo 3D)
# Type: cell-based
# Conditions: Homo sapiens
# Procedure, shortened: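 Isogenic DLD-1 pair; BRCA2−/− seeded 3,000 cells/mL and read day 12, wt seeded 1,500 cells/mL and read day 7. 10-pt titration (top 10 μM, 3-fold), re-fed with compound day 6, 37 °C/5% CO2. CTG 3D endpoint; IC50 at 50% signal loss.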
# [1] = DLD-1, first proliferation column (c5), DLD-1 BRCA2-/-, read-out: POLQ PD Prolif Lumin (converted)
# [2] = DLD-1, DLD-1 BRCA2-/- proliferation, column head only partly shown, read-out: POLQ PD Prolif Lumin (converted)
# [3] = DLD-1, first proliferation column (c5), taken as DLD-1 BRCA2-/-, read-out: POLQ PD Prolif Lumin (converted)
# [4] = DLD-1, DLD-1 BRCA2 −/−, mean, read-out: POLQ PD Prolif Lumin BRCA2 −/− mean pIC50 (converted)
# [5] = DLD-1, DLD-1 BRCA2 −/− cells, mean, read-out: POLQ PD Prolif Lumin BRCA2 −/− mean pIC50 (converted)
structure (smiles),measurement,setting,value
"CNC(=O)N1CC[C@@H](Oc2ccc(-c3nc4c(OC5(C)CC5)ncnc4n3Cc3cc(C)ccn3)c(Cl)c2)C1 [Example T501, (R)-3-(3-chloro-4-(6-(1-methylcyclopropoxy)-9-((4-methylpyridin-2-yl)methyl)-9H-purin-8-yl)phenoxy)-N-methylpyrrolidine-1-carboxamide]",IC50,[1],794 nM
"Cc1ccnc(Cn2c(-c3ccc(C(=O)NC4CC(F)C4)cc3Cl)nc3c(OC4(C)CC4)ncnc32)c1 (stereo not shown) [Example T280, 3-chloro-N-(3-fluorocyclobutyl)-4-(6-(1-methylcyclopropoxy)-9-((4-methylpyridin-2-yl)methyl)-9H-purin-8-yl)benzamide]",IC50,[2],794 nM
"Cc1ccnc(Cn2c(-c3ccc(C(=O)NC4CC(O)C4)cc3Cl)nc3c(OC4(C)CC4)ncnc32)c1 (stereo not shown) [Example T319, 3-chloro-N-(3-hydroxycyclobutyl)-4-(6-(1-methylcyclopropoxy)-9-((4-methylpyridin-2-yl)methyl)-9H-purin-8-yl)benzamide]",IC50,[3],2510 nM
"C[C@H](COc1cccc(-c2nc3c(OC4(C)CC4)ncnc3n2Cc2cccc(Cl)c2)c1Cl)C(=O)O [Example T159, (R)-3-(2-chloro-3-(9-(3-chlorobenzyl)-6-(1-methylcyclopropoxy)-9H-purin-8-yl)phenoxy)-2-methylpropanoic acid]",IC50,[1],126 nM
"Cc1ccnc(Cn2c(-c3ccc(OCC(=O)NC4CC(F)C4)cc3Cl)nc3c(OC4(C)CC4)ncnc32)c1 (stereo not shown) [Example T421, 2-(3-chloro-4-(6-(1-methylcyclopropoxy)-9-((4-methylpyridin-2-yl)methyl)-9H-purin-8-yl)phenoxy)-N-(3-fluorocyclobutyl)acetamide]",IC50,"DLD-1, proliferation, luminescence, taken as DLD-1 BRCA2-/-, read-out: POLQ PD Prolif Lumin (converted)",251 nM
"CC(=O)N1CCN(CCOc2ccc(-c3nc4c(OC5(C)CC5)ncnc4n3Cc3cc(C)ccn3)c(Cl)c2)CC1 [Example T607, 1-(4-(2-(3-chloro-4-(6-(1-methylcyclopropoxy)-9-((4-methylpyridin-2-yl)methyl)-9H-purin-8-yl)phenoxy)ethyl)piperazin-1-yl)ethan-1-one]",IC50,"DLD-1, first proliferation column, DLD-1 BRCA2-/-, read-out: POLQ PD Prolif Lumin (converted)",126 nM
"COc1c(F)cc(Cl)cc1Cn1c(-c2ccc(OCCC(C)C(=O)O)cc2Cl)nc2c(OC3(C)CC3)ncnc21 (racemic) [Example U61, 4-(3-chloro-4-(9-(5-chloro-3-fluoro-2-methoxybenzyl)-6-(1-methylcyclopropoxy)-9H-purin-8-yl)phenoxy)-2-methylbutanoic acid]",IC50,[4],158 nM
"Cc1ccnc(Cn2c(-c3ccc(N4CCN5CCC4C5)cc3Cl)nc3c(OC4(C)CC4)ncnc32)c1 (racemic) [Example T493, 8-(4-(1,4-diazabicyclo[3.2.1]octan-4-yl)-2-chlorophenyl)-6-(1-methylcyclopropoxy)-9-((4-methylpyridin-2-yl)methyl)-9H-purine]",IC50,[1],251 nM
"CCNC(=O)COc1ccc(-c2nc3c(OC4(C)CC4)ncnc3n2Cc2cc(C)ccn2)c(Cl)c1 [Example T221, 2-(3-chloro-4-(6-(1-methylcyclopropoxy)-9-((4-methylpyridin-2-yl)methyl)-9H-purin-8-yl)phenoxy)-N-ethylacetamide]",IC50,[2],316 nM
"Cc1ccnc(Cn2c(-c3ccc(OCC(=O)N4CCC(F)CC4)cc3Cl)nc3c(OC4(C)CC4)ncnc32)c1 [Example T553, 2-(3-chloro-4-(6-(1-methylcyclopropoxy)-9-((4-methylpyridin-2-yl)methyl)-9H-purin-8-yl)phenoxy)-1-(4-fluoropiperidin-1-yl)ethan-1-one]",IC50,[1],200 nM
"COC(=O)NCCc1ccc(-c2nc3c(OC4(C)CC4)ncnc3n2Cc2cc(C)ccn2)c(Cl)c1 [Example T222, methyl (3-chloro-4-(6-(1-methylcyclopropoxy)-9-((4-methylpyridin-2-yl)methyl)-9H-purin-8-yl)phenethyl)carbamate]",IC50,[2],200 nM
"Cc1ccnc(Cn2c(-c3ccc(OCC(=O)N4C[C@H]5C[C@@H](C4)O5)cc3Cl)nc3c(OC4(C)CC4)ncnc32)c1 [Example T550, rel-1-((1R,5S)-6-oxa-3-azabicyclo[3.1.1]heptan-3-yl)-2-(3-chloro-4-(6-(1-methylcyclopropoxy)-9-((4-methylpyridin-2-yl)methyl)-9H-purin-8-yl)phenoxy)ethan-1-one]",IC50,[1],316 nM
"Cc1ccnc(Cn2c(-c3ccc(CCC(=O)N(C)C)cc3Cl)nc3c(OC4(C)CC4)ncnc32)c1 [Example T358, 3-(3-chloro-4-(6-(1-methylcyclopropoxy)-9-((4-methylpyridin-2-yl)methyl)-9H-purin-8-yl)phenyl)-N,N-dimethylpropanamide]",IC50,[3],251 nM
"Cc1ccc(Cl)cc1Cn1c(-c2ccc(OCCC(C)C(=O)O)cc2Cl)nc2c(OC3(C)CC3)ncnc21 (racemic) [Example U36, 4-(3-chloro-4-(9-(5-chloro-2-methylbenzyl)-6-(1-methylcyclopropoxy)-9H-purin-8-yl)phenoxy)-2-methylbutanoic acid]",IC50,[4],316 nM
"CC1(Oc2ncnc3c2nc(-c2ccc(OCCO)cc2Cl)n3Cc2cc(C(F)(F)F)ccn2)CC1 [Example T44, 2-(3-chloro-4-(6-(1-methylcyclopropoxy)-9-((4-(trifluoromethyl)pyridin-2-yl)methyl)-9H-purin-8-yl)phenoxy)ethan-1-ol]",IC50,[5],251 nM
"CC(CCc1ccc(-c2nc3c(OC4(C)CC4)ncnc3n2Cc2cccc(Cl)c2)c(Cl)c1)C(=O)O (racemic) [Example T290, 4-(3-chloro-4-(9-(3-chlorobenzyl)-6-(1-methylcyclopropoxy)-9H-purin-8-yl)phenyl)-2-methylbutanoic acid]",IC50,[2],251 nM
"COc1cccc(Cn2c(-c3ccc(CC(N)=O)cc3Cl)nc3c(OC4(C)CC4)ncnc32)c1 [Example T105, 2-(3-chloro-4-(9-(3-methoxybenzyl)-6-(1-methylcyclopropoxy)-9H-purin-8-yl)phenyl)acetamide]",IC50,[1],631 nM
"Cc1cccc(Cn2c(-c3ccc(OCCC(C)C(=O)O)cc3Cl)nc3c(OC4(C)CC4)ncnc32)c1C (racemic) [Example T570, 4-(3-chloro-4-(9-(2,3-dimethylbenzyl)-6-(1-methylcyclopropoxy)-9H-purin-8-yl)phenoxy)-2-methylbutanoic acid]",IC50,[1],398 nM
"CC1(Oc2ncnc3c2nc(-c2ccc(OCCCO)cc2Cl)n3Cc2cc(C(F)(F)F)ccn2)CC1 [Example T94, 3-(3-chloro-4-(6-(1-methylcyclopropoxy)-9-((4-(trifluoromethyl)pyridin-2-yl)methyl)-9H-purin-8-yl)phenoxy)propan-1-ol]",IC50,[5],200 nM
"COC(=O)CCOc1ccc(-c2nc3c(OC4(C)CC4)ncnc3n2Cc2cccc(Cl)c2)c(Cl)c1 [Example T156, methyl 3-(3-chloro-4-(9-(3-chlorobenzyl)-6-(1-methylcyclopropoxy)-9H-purin-8-yl)phenoxy)propanoate]",IC50,[1],200 nM
"Cc1ccnc(Cn2c(-c3ccc(C(=O)NCCCF)cc3Cl)nc3c(OC4(C)CC4)ncnc32)c1 [Example T191, 3-chloro-N-(3-fluoropropyl)-4-(6-(1-methylcyclopropoxy)-9-((4-methylpyridin-2-yl)methyl)-9H-purin-8-yl)benzamide]",IC50,[1],398 nM
"Cc1nnccc1Cn1c(-c2ccc(CC(N)=O)cc2Cl)nc2c(OC3(C)CC3)ncnc21 [Example T17, 2-(3-chloro-4-(6-(1-methylcyclopropoxy)-9-((3-methylpyridazin-4-yl)methyl)-9H-purin-8-yl)phenyl)acetamide]",IC50,[5],> 10000 nM

# Reference: patent US20250195530A1, “POLQ INHIBITORS” (ASTRAZENECA AB, priority 2022, published 2025)
